{"source": "patent US20080268073A1", "about": "“CERAMIDASE INHIBITOR” (TAKARA BIO INC., priority 2003, published 2008)", "test_system": "neutral/alkaline RatBrain Ceramidase", "test": "Inhibitory activity on neutral/alkaline RatBrain Ceramidase (Reference Example 1, NBD-C12-Ceramide, HPLC)", "format": "biochemical, rat", "settings": "concentration of 5 μM; NBD-C12-Ceramide 0.02 mM", "protocol": "As neutral/alkaline ceramidase, two kinds of ceramidase derived from Pseudomonas aeruginosa strain AN17 and ceramidase derived from a rat brain were used.\nOn the other hand, a crude enzyme solution of rat brain-derived ceramidase was prepared in the following manner. First, two pieces (3.5 g) of rat brain tissues were homogenized in 30 mL of 0.25 M sucrose solution with a Potter-Elvehjem homogenizer. The resulting homogenate was centrifuged at 700×g for 10 minutes, then the supernatant was centrifuged at 25,000×g for 10 minutes, and the resulting supernatant was further centrifuged at 100,000×g for 60 minutes to give precipitates which were then suspended in 3 mL of 25 mM Tris-HCl buffer (pH 8.0). Nine milliliters of 25 mM Tris-HCl buffer (pH 8.0) comprising 0.5% Triton X-100 was added to the resulting suspension which was then subjected to extraction by leaving the suspension on ice for 2 hours. […]\nThe inhibitory activity on the neutral/alkaline RatBrain Ceramidase was determined in the following manner. […] The reaction was terminated by adding 75 microliters of methanol, and 50 microliters of aliquot of the reaction solution was analyzed by HPLC.\nHPLC analysis was carried out in the following manner. […] Detection was carried out with a fluorescence detector at an excitation light of 465 nm and a fluorescent light of 535 nm. […]", "data": [{"smiles": "CCCC/C=C/CCCC(O)C(CCCCCCCCCCCCCCCC/C=C/CC(=O)O)C(CO)C(C)O", "note": "(single isomer, unassigned) [purified substance]", "values": [{"measurement": "inhibition of the activity of neutral/alkaline ceramidase derived from a rat brain", "value": 50, "unit": "%"}]}]}
